Source: US9226928B2, “Spirocyclic isoxazoline parasiticidal combinations” (Zoetis Services LLC, priority 2012, dated 2016)

System: Haemonchus contortus L3 resistant strain
Assay: In vitro motility assay, H. contortus L3 resistant strain
Type: cell-based
Conditions: 96 hours; for H. contortus L3 resistant MED: minimum efficacious dose, visual motility assessment; for % Motility: vs untreated control, LemnaTec, moxidectin 0.3 μM, pyrantel 10 μM, Compound A 100 μM, alone or combined

Row | SMILES | H. contortus L3 resistant MED [µM] | % Motility [%]
1 | CN1CCCN=C1/C=C/c1cccs1 [Pyrantel, pyrantel pamoate] | 33 | 80.0
2 | CS(=O)(=O)CC(=O)N1CC2(C1)OCc1cc(C3=NO[C@@](c4cc(Cl)c(F)c(Cl)c4)(C(F)(F)F)C3)ccc12 [Compound A, (S)-1-(5′-(5-(3,5-dichloro-4-fluorophenyl)-5-(trifluoromethyl)-4,5-dihydroisoxazol-3-yl)-3′H-spiro[azetidine-3,1′-isobenzofuran]-1-yl)-2-(methylsulfonyl)ethanone] | >100 | 69.0
3 | CO/N=C1\C[C@]2(C[C@@H]3C[C@@H](C/C=C(\C)C[C@@H](C)/C=C/C=C4\CO[C@@H]5[C@H](O)C(C)=C[C@@H](C(=O)O3)[C@]45O)O2)O[C@H](/C(C)=C/C(C)C)[C@H]1C [Moxidectin, moxidectin] | 1 | 64.3
